Drawing on PubChem BioAssay (NCI), this text covers TGI and GI50 for 19 molecules.

Molecules are shown by their SMILES.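 48-hour exposure; five concentrations; linearly interpolated endpoints. Abbreviation: GI50, concentration required for 50% inhibition of growth. Definition used: TGI = concentration required for complete inhibition of growth.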 Bounds are passed on as bounds.

Common to all, as to experiment: growth of human tumour cells (NCI), 48 h
The subject of assay [1] is SK-MEL-5 melanoma.
Assay [2] concerns DU-145 prostate.
Assay [3] relates to HT29 colon.
Assay [4] concerns SF-268 CNS.
The test system of assay [5] is LOX IMVI melanoma.
Assay [6] relates to SNB-19 CNS.
In assay [7] the test system is NCI-H460 lung.
In assay [8] the test system is MCF7 breast.
In assay [9] the test system is UO-31 renal.
In assay [10] the test system is ACHN renal.
In assay [11] the test system is HOP-62 NSCLC.
Assay [12] deals with UACC-62 melanoma.
In assay [13] the test system is M14 melanoma.
The subject of assay [14] is SK-MEL-28 melanoma.
Assay [15] relates to KM12 colon.
Assay [16] relates to CCRF-CEM leukemia.

For the molecule `CC(C)NCC(O)c1ccc(OCc2ccccc2)c(OCc2ccccc2)c1-c1ccccc1` (stereo not drawn), the TGI in assay [1] was 2.5 µM; in assay [2], 3.14 µM; in assay [3], 3.04 µM; in [4], 11.8 µM; in assay [5] it was 13.8 µM; in [6] it was 4.07 µM. Further, the TGI in assay [7] amounted to 3.49 µM; in [8], 3.22 µM; in assay [9], 7.82 µM; in [10], 3.06 µM; in assay [11], 3.25 µM; in assay [12], 2.72 µM.

For the molecule `Clc1c(Cl)c2c(Cl)c(Cl)c1C[P+](c1ccccc1)(c1ccccc1)CC[P+](c1ccccc1)(c1ccccc1)Cc1c(Cl)c(Cl)c(c(Cl)c1Cl)C[P+](c1ccccc1)(c1ccccc1)CC[P+](c1ccccc1)(c1ccccc1)C2`, the TGI in assay [1] was determined as 3.13 µM; in assay [3] it was 10.3 µM; in assay [4], 12.6 µM; in [5], 7.89 µM; in assay [13], 16.2 µM; in assay [6] it was 13.4 µM. Moreover, the TGI is 12.4 µM in assay [7]; 5.13 µM in assay [14]; 21.2 µM in assay [9]; 17.6 µM in assay [10]; 18.5 µM in assay [11]; 6.12 µM in assay [15]. In [16], this molecule had a TGI of 9.63 µM.

Regarding `COc1ccc2oc(C(=O)N3CC(CCl)c4ccc([N+](=O)[O-])cc43)cc2c1` (stereo not drawn), the TGI in assay [1] is over 100 µM; in assay [2], over 100 µM; in [4], 53.8 µM; in [5] it was over 100 µM; in assay [13] it was over 100 µM; in assay [6] it was over 100 µM. Besides, the TGI in [7] was over 100 µM; in assay [14], over 100 µM; in assay [9], over 100 µM; in assay [10], over 100 µM; in assay [11], 31.5 µM; in assay [12], over 100 µM. This molecule also yielded a TGI in [15] of over 100 µM.

As for `Cc1ccc(S(=O)(=O)OC2C(C3COC(C)(C)O3)OC3OC(C)(C)OC32)cc1` (stereo not drawn), the TGI in assay [1], in assay [2], in [3], in assay [4], in [5] and in assay [13] was over 100 µM each time. In addition, the TGI in [6], in assay [7], in [14], in assay [9], in [10] and in assay [11] was over 100 µM in each case. Also, the TGI in assay [12], in assay [15] and in [16] was over 100 µM throughout.

With `CC(C)OP(=O)(OC(C)C)C(=Nc1ccccc1)NNc1ccc([N+](=O)[O-])cc1`, the TGI in assay [1] was 27.1 µM; in [4] it was over 100 µM; in assay [5], over 100 µM; in assay [13], 41.4 µM; in assay [6], over 100 µM; in assay [7] it was over 100 µM. Moreover, the TGI was 89.5 µM in assay [14]; over 100 µM in [9]; 92.5 µM in [10]; over 100 µM in [11]; 29.1 µM in [12]; 43.6 µM in assay [15]. The same molecule had a TGI in [16] of 56.9 µM.

As to `CC(CO)C1=CC(C#CCOCc2ccccc2)N(C(=O)Oc2ccccc2)c2ccccc21` (stereo not drawn), the TGI was 74.5 µM in assay [1]; over 100 µM in assay [2]; over 100 µM in [3]; over 100 µM in assay [4]; over 100 µM in assay [5]; over 100 µM in assay [13]. The TGI in [6] was over 100 µM; in [7], 91.8 µM; in assay [14], over 100 µM; in assay [9] it was over 100 µM; in assay [10], 36.3 µM; in assay [11], over 100 µM. The figures for the TGI in [12], in assay [15] and in [16] were 22.9 µM, 82.9 µM and over 100 µM, respectively.

As for `CCOP(=O)(C=C=C(C)C)OCC`, the TGI in [1], in assay [2], in assay [3], in [4], in assay [5] and in [13] was over 100 µM throughout. The TGI in [6], in assay [7], in assay [8], in [14], in assay [10] and in assay [11] was over 100 µM each time. Also, the TGI in [12] and in assay [15] was over 100 µM throughout.

As to `CCOC(=O)[C@@]12CCC(C1=O)[C@](C)(O)C[C@@H]2c1ccccc1`, the TGI was over 100 µM in assay [1]; over 100 µM in assay [2]; 73.2 µM in [3]; over 100 µM in assay [4]; over 100 µM in assay [5]; over 100 µM in [13]. For the same molecule, the TGI in assay [6], in assay [7], in [14], in [9], in assay [10] and in assay [11] was over 100 µM each time. In addition, the TGI in assay [12], in assay [15] and in assay [16] was over 100 µM throughout.

In the case of `CCOP(=O)(OCC)/C(C#N)=C/c1cccn1CC(C)C`, the TGI in [1], in assay [2], in assay [3], in [4], in [5] and in assay [13] was over 100 µM in each case. Moreover, the TGI in assay [6], in [7], in [8], in assay [14], in assay [9] and in [10] was over 100 µM in each case. Besides, the TGI in assay [11], in assay [12] and in [15] was over 100 µM each time.

Turning to `OC1CN2CCS[C@H]2C(O)C1O` (stereo partly drawn), the TGI in [1], in assay [2], in [3], in [4], in assay [5] and in [13] was over 100 µM each time. For the same molecule, the TGI in assay [6], in assay [7], in [14], in assay [9], in assay [10] and in assay [11] was over 100 µM each time. Further, the TGI in assay [12], in assay [15] and in [16] was over 100 µM each time.

For the molecule `NC1=NNC2(C(N)=N1)c1ccccc1-c1ccccc12`, the TGI in [1], in assay [2], in [3], in [4], in [5] and in assay [13] was over 10 µM in each case. Further, the TGI in assay [6], in [7], in assay [8], in assay [14], in [9] and in assay [10] was over 10 µM throughout. Moreover, the TGI in [11], in assay [12] and in [15] was over 10 µM throughout.

As to `O=C(/C=C/c1ccco1)CC(=O)/C=C/c1ccco1`, the TGI was 18.1 µM in assay [1]; 13.8 µM in assay [5]; over 31.6 µM in assay [13]; 31.4 µM in assay [6]; 22.2 µM in assay [7]; 19.2 µM in assay [8]. The TGI was 17.5 µM in assay [14]; 20.2 µM in [9]; 21 µM in assay [10]; 17.3 µM in assay [11]; over 31.6 µM in [12]; over 55.2 µM in [15]. In assay [16], this molecule yielded a TGI of 16.3 µM.

As for `CC(C)NC(=O)OCc1c(COC(=O)NC(C)C)n(C)c2c1ccc1ccccc12`, the TGI stood at 6.63 µM in assay [1]; 14.4 µM in assay [2]; 13 µM in [3]; 6.2 µM in assay [4]; 2.6 µM in assay [5]; 3.2 µM in [13]. The TGI in [6] was 3.74 µM; in [7] it was 7.7 µM; in assay [8] it was 1.88 µM; in assay [14] it was 5.75 µM; in assay [9], 4.09 µM; in assay [10], 2.82 µM. In addition, the TGI came to 16.2 µM in assay [11], 2.92 µM in assay [12] and 15.5 µM in assay [15].

As for `O=[N+]([O-])c1cc(Cl)cc2cc(Cl)cnc12`, the TGI in assay [1], in [2], in assay [3], in [4], in assay [5] and in assay [13] was over 100 µM in each case. Further, the TGI in [6], in assay [7], in assay [14], in assay [9], in [10] and in assay [11] was over 100 µM throughout. Further, the TGI in [12] and in assay [16] was over 100 µM each time.

For the molecule `O=c1ccn2n1CCCCC2`, the TGI in assay [1], in assay [2], in assay [3], in assay [4], in [5] and in assay [13] was over 100 µM throughout. For the same molecule, the TGI in assay [6], in [7], in assay [14], in [9], in assay [10] and in assay [11] was over 100 µM throughout. The TGI in assay [12], in assay [15] and in assay [16] was over 100 µM each time.

Turning to `O=C(c1cccnc1)N1N=C(c2ccc(Cl)cc2)CC1(O)c1cc(F)c(Cl)cc1Cl` (stereo not drawn), the TGI in assay [1] was 24.2 µM; in [2], over 100 µM; in assay [3], 75.8 µM; in [4] it was 75 µM; in assay [5], 31.2 µM; in [13], 91.9 µM. For the same molecule, the TGI in assay [6] was over 100 µM; in [7], over 100 µM; in assay [14], 91.7 µM; in assay [9], over 100 µM; in assay [10], 53.8 µM; in assay [11], 91.3 µM. In addition, the TGI in assay [15] and in [16] was over 100 µM throughout.

Take `CC(=O)N[C@H]1CCCC[C@@H]1OC(C)=O`: the TGI in [1], in [2], in assay [3], in [5], in assay [7] and in [8] was over 100 µM each time. The TGI in [14], in assay [10], in assay [11], in [12] and in [15] was over 100 µM throughout.

In the case of `CN(/N=C/C=N/N(C)C1=NCCCCN1)C1=NCCCCN1`, the TGI in [1], in assay [3], in assay [4], in [5], in assay [13] and in [6] was over 100 µM in each case. Moreover, the TGI in [7], in [8], in [14], in assay [9], in assay [10] and in [11] was over 100 µM each time. In addition, the TGI in [12] and in assay [16] was over 100 µM each time.

On to `CC(=O)Oc1cc2c(cc1OC(C)=O)[C@H]1CC[C@]3(C)[C@@H](OC(C)=O)CC[C@H]3[C@@H]1CC2`, for which the TGI amounted to 20.4 µM in assay [1]; 38.9 µM in [2]; 19.3 µM in [3]; 22.5 µM in assay [4]; 16.6 µM in [5]; 21.1 µM in assay [13]. The TGI in assay [6] is 21.7 µM; in assay [7], 20.6 µM; in assay [8] it was 20.9 µM; in assay [14], 19.7 µM; in assay [9], 13 µM; in assay [10] it was 16.5 µM. Also, the results for the TGI in assay [11], in assay [12] and in assay [15] were 26.7 µM, 13.1 µM and 23.4 µM, respectively. The GI50 in assay [11] is 4.81 µM; in [12], 2.48 µM.
